{
  "source": "patent US20120009152A1",
  "about": "“NITRIC OXIDE DONORS FOR TREATMENT OF DISEASE AND INJURY” (priority 2002, published 2012)",
  "key": {"[1]": {"system": "cerebral vessels in the ischemic boundary regions", "test": "Angiogenesis in ischemic brain after embolic MCA occlusion (vascular perimeters, BrdU endothelial cells, three dimensional vessel analysis)", "assay_type": "in vivo, rat", "experimental": "Male Wistar rats weighing 320-380 gm were employed. The middle cerebral artery (MCA) was occluded by placement of an embolus at the origin of the MCA.\n(§1) DETANONOate (0.4 mg/kg) was intravenously administered to rats (n=8) 24 hours after stroke and daily (i.p) for an additional 6 consecutive days. Ischemic rats (n=8) treated with the same volume of decayed DETANONOate were used as a control group. All rats were sacrificed 14 days after stroke. 2) To examine the effect of exogenous NO on brain levels of VEGF, DETANONOate (0.4 mg/kg) or saline was administered to ischemic rats (n=3 for each group) with the identical paradigm described in Protocol 1. These rats were sacrificed 7 days after stroke. […] Rats were sacrificed 14 days after stroke.\nBromodeoxyuridine (BrdU, Sigma Chemical), the thymidine analog that is incorporated into the DNA of dividing cells during S-phase, was used for mitotic labeling. BrdU (50 mg/kg) was […] (i.p) daily for 13 consecutive days into ischemic rats starting 1 day after MCA occlusion.\nTo examine neovascularization in ischemic brain, fluorescein isothiocyanate (FITC) dextran (2×10^6 molecular weight, Sigma, St. Louis, Mo.; 0.1 ml of 50 mg/ml) was administered intravenously to the ischemic rats subjected to 14 days of MCAo. Ti brains were rapidly removed from the severed heads and placed in 4% of paraformaldehyde at 4° C. for 48 hours. Coronal sections (100 μm) were cut on a vibratome. The vibratome sections were analyzed with a Bio-Rad MRC 1024 (argon and krypton) laser-scanning confocal imaging system mounted onto a Zeiss microscope (Bio-Rad; Cambridge, Mass.), as previously described. Seven 100 μm thick vibratome coronal sections at 2 mm intervals from bregma 5.2 mm to bregma −8.8 mm from each animal injected with FITC-dextran were selected. Eight brain regions in the ipsilateral and contralateral hemispheres were selected within a reference coronal section (interaural 8.8 mm, bregma 0.8 mm). These regions were scanned in 512×512 pixel (276×276 μm^2) format in the x-y direction using a 4× frame-scan average and twenty-five optical sections along the z-axis with a 1 μm step-size were acquired under a 40× objective. Vascular branch points, segment lengths and diameters were measured in three dimensions using software developed in the laboratory. Image acquisition and analysis were performed blindly.\nFor BrdU immunostaining, DNA was first denatured by incubating brain sections (6 μm) in 50% formamide 2×SSC at 65° C. for 2 hours and then in 2N HCl at 37° C. for 30 minutes. Sections were then rinsed with tris buffer and treated with 1% of H2O2 to block endogenous peroxidase. Sections were incubated with a mouse monoclonal antibody (mAb) against BrdU (1:1000, Boehringer Mannheim, Indianapolis, Ind. overnight and incubated with biotinylated secondary antibody (1:200, Vector, Burlingame, Calif.) for 1 hour.\nTo quantify BrdU immunoreactive endothelial cells, numbers of endothelial cells and numbers of BrdU immunoreactive endothelial cells in ten enlarged vessels adjacent to the ischemic lesion were counted from each rat. Numbers of endothelial cells and BrdU immunoreactive endothelial cells in the ten vessels of the contralateral homologous area were also counted. Data are presented as percentage of BrdU immunoreactive endothelial cells to total endothelial cells in ten enlarged vessels from each rat.\nVascular perimeters were measured on coronal sections immunostained with an anti-von Willebrand factor antibody as previously described."}, "[2]": {"system": "Mouse brain-derived endothelial cells", "test": "Capillary-like tube formation assay", "assay_type": "cell-based", "experimental": "An in vitro angiogenesis assay was performed. Briefly, 0.8 ml of growth factor reduced Matrigel (Becton Dickinson) was added to pre-chilled 35 mm culture dishes and allowed to polymerize at 37° C. for 2 to 5 hours. […] For quantitative measurements of capillary tube formation, three random areas of Matrigel dishes were imaged and the length of continuous cords of three or more cells was measured."}, "rat VEGF": {"system": "rat VEGF", "test": "ELISA for VEGF in ischemic boundary regions", "assay_type": "in vivo", "details": "control 13.4±1.5", "experimental": "as §1\nThe ischemic boundary regions and homologous tissue in the contralateral hemisphere were dissected. The tissue was homogenized and centrifuged at 10,000 g for 20 min at 4° C. and the supernatant was collected. ELISA for VEGF in the supernatants was performed using a commercially available kit specific for rat VEGF (R&D, systems) according to the manufacture's instruction."}, "[3]": {"system": "rats subjected to embolic middle cerebral artery occlusion", "test": "Adhesive removal test after embolic MCA occlusion", "assay_type": "in vivo, rat", "experimental": "Male Wistar rats weighing 320 to 380 g were used in the present study. The middle cerebral artery (MCA) was occluded by placement of an embolus at the origin of the MCA.\nIschemic rats (n=9) were treated with the same volume of tap water as a control group. Functional tests were performed and body weight was measured before ischemia and at 4, 7, 14, 21, and 28 days after onset of MCA occlusion. All rats were killed 28 days after MCA occlusion. […] These rats were killed 1 hour after the last treatment for measurements of brain levels of cGMP. […] Experiments were also performed to examine brain PDE5, nonischemic rats and ischemic rats were killed at 2, 4, 24, 48, and 168 hours after the onset of ischemia (n=3 for each time point). Reverse transcription (RT)-polymerase chain reaction (PCR) was performed to detect PDE5 in brain tissue.\nAn adhesive removal test was used to measure somatosensory deficits and was performed before MCA occlusion and at 4, 7, 14, 21 and 28 days after MCA occlusion."}, "[4]": {"details": "DETANONOate 0.4 mg/kg, three dimensional analysis"}},
  "data": [
    {"compound": "NCCN(CCN)/[N+]([O-])=N/O", "note": "[DETANONOate, (Z)-1-[N-(2-aminoethyl)-N-(2-ammonioethyl)aminio]diazen-1-ium-1,2-diolate]", "values": [
      {"measurement": "vessel enlargement in the contralateral hemisphere", "setting": "[1]; DETANONOate 0.4 mg/kg from 24 h after stroke for 7 days, 14 days after stroke", "result": "did not enlarge vessels in the contralateral hemisphere"},
      {"measurement": "vascular perimeters around the ischemic lesion", "setting": "[1]; DETANONOate 0.4 mg/kg from 24 h after stroke for 7 days, 14 days after stroke, vs decayed DETANONOate control", "result": "significantly (P<0.01) enlarged vascular perimeters"},
      {"measurement": "numbers of proliferated (BrdU immunoreactive) endothelial cells", "setting": "[1]; DETANONOate 0.4 mg/kg from 24 h after stroke for 7 days, vs control", "result": "significantly (p<0.05) increased"},
      {"measurement": "capillary segment diameters", "setting": "[1]; [4]", "result": "significantly smaller diameters"},
      {"measurement": "capillary segment lengths", "setting": "[1]; [4]", "result": "shorter segment lengths"},
      {"measurement": "numbers of capillary segments in the boundary regions of ischemia", "setting": "[1]; DETANONOate 0.4 mg/kg, three dimensional analysis, vs decayed DETANONOate", "result": "significantly (p<0.05) increased the numbers of capillary segments"},
      {"measurement": "capillary-like tube formation", "setting": "[2]; DETANONOate 0.2 μM, 3 hours, vs DMEM only", "result": "significant increase in capillary-like tube formation"},
      {"measurement": "VEGF levels in the ischemic boundary regions", "setting": "rat VEGF; DETANONOate 0.4 mg/kg from 24 h after stroke, 7 days after stroke, n=3", "result": "28.9 ± 1.0", "unit": "pg/mL"}
    ]},
    {"compound": "CCCc1nn(C)c2c(=O)[nH]c(-c3cc(S(=O)(=O)N4CCN(C)CC4)ccc3OCC)nc12", "note": "[Sildenafil]", "values": [
      {"measurement": "Adhesive Removal Test", "setting": "[3]; Sildenafil 2 mg/kg, 2 h, 4 d", "result": "96.4 ± 9.8", "unit": "s"},
      {"measurement": "Adhesive Removal Test", "setting": "[3]; Sildenafil 2 mg/kg, 2 h, 7 d", "result": "41.9 ± 8.4", "unit": "s"},
      {"measurement": "Adhesive Removal Test", "setting": "[3]; Sildenafil 2 mg/kg, 2 h, 14 d", "result": "27.6 ± 3.9", "unit": "s"},
      {"measurement": "Adhesive Removal Test", "setting": "[3]; Sildenafil 2 mg/kg, 2 h, 21 d", "result": "23.6 ± 5.1", "unit": "s"},
      {"measurement": "Adhesive Removal Test", "setting": "[3]; Sildenafil 2 mg/kg, 2 h, 28 d", "result": "15.9 ± 3.8", "unit": "s"},
      {"measurement": "Adhesive Removal Test", "setting": "[3]; Sildenafil 2 mg/kg, 2 h group, Before Ischemia (baseline)", "result": "7.0 ± 0.1", "unit": "s"},
      {"measurement": "Adhesive Removal Test", "setting": "[3]; Sildenafil 2 mg/kg, 24 h, 4 d", "result": "102 ± 6.6", "unit": "s"},
      {"measurement": "Adhesive Removal Test", "setting": "[3]; Sildenafil 2 mg/kg, 24 h, 7 d", "result": "49.4 ± 4.5", "unit": "s"},
      {"measurement": "Adhesive Removal Test", "setting": "[3]; Sildenafil 2 mg/kg, 24 h, 14 d", "result": "14.1 ± 1.3", "unit": "s"},
      {"measurement": "Adhesive Removal Test", "setting": "[3]; Sildenafil 2 mg/kg, 24 h, 21 d", "result": "14.0 ± 1.0", "unit": "s"},
      {"measurement": "Adhesive Removal Test", "setting": "[3]; Sildenafil 2 mg/kg, 24 h, 28 d", "result": "10.7 ± 0.9", "unit": "s"},
      {"measurement": "Adhesive Removal Test", "setting": "[3]; Sildenafil 2 mg/kg, 24 h group, Before Ischemia (baseline)", "result": "6.8 ± 0.3", "unit": "s"},
      {"measurement": "Adhesive Removal Test", "setting": "[3]; Sildenafil 5 mg/kg, 2 h, 4 d", "result": "100.7 ± 9.2", "unit": "s"},
      {"measurement": "Adhesive Removal Test", "setting": "[3]; Sildenafil 5 mg/kg, 2 h, 7 d", "result": "70.7 ± 10.8", "unit": "s"},
      {"measurement": "Adhesive Removal Test", "setting": "[3]; Sildenafil 5 mg/kg, 2 h, 14 d", "result": "38.6 ± 7.9", "unit": "s"},
      {"measurement": "Adhesive Removal Test", "setting": "[3]; Sildenafil 5 mg/kg, 2 h, 21 d", "result": "26.0 ± 6.6", "unit": "s"},
      {"measurement": "Adhesive Removal Test", "setting": "[3]; Sildenafil 5 mg/kg, 2 h, 28 d", "result": "14.8 ± 3.9", "unit": "s"},
      {"measurement": "Adhesive Removal Test", "setting": "[3]; Sildenafil 5 mg/kg, 2 h group, Before Ischemia (baseline)", "result": "16.7 ± 0.4", "unit": "s"},
      {"measurement": "angiogenesis in ischemic brain", "setting": "[1]; Sildenafil 2 mg/kg fed from 24 h after stroke, daily 7 days, 14 days after stroke", "result": "significant increase of angiogenesis"},
      {"measurement": "capillary-like tube formation", "setting": "[2]; Sildenafil 100 to 500 nM", "result": "concentration-dependent capillary-like tube formation"},
      {"measurement": "VEGF levels in the ischemic boundary", "setting": "rat VEGF; Sildenafil treated ischemic rats, n=3 per group", "result": "34.4 ± 2.9", "unit": "pg/mL"}
    ]}
  ]
}
